Data as given in patent US20240293416A1, “TREATMENT OF LIVER DISORDERS WITH A THR-ß AGONIST” (Terns Pharmaceuticals, Inc., priority 2021, published 2024).
Marks after values point to notes of the source that are not given here.

Assay: Single ascending dose trial: adverse event and safety monitoring
Type: in vivo, human
Details: fasted, n = 6
Description: A single-ascending dose clinical trial of Compound 1 (potassium salt) was performed.

## N#Cc1nn(-c2cc(Cl)c(Oc3n[nH]c(=O)c4ccccc34)c(Cl)c2)c(=O)[nH]c1=O [Compound 2]
Single 3 mg dose
  AEs by relationship to drug: Not related: 2 (33.3%)
  AEs by relationship to drug: Possibly related: 0
  AEs by relationship to drug: Related: 0
  AEs by relationship to drug: Unlikely related: 0
  Any AE, all CTCAE grades: 2 (33.3%)
  CTCAE Grade 1: 0
  CTCAE Grade 2: 0
  CTCAE Grade 3 or higher: 0
  Serious AEs: 0
Single 10 mg dose
  AEs by relationship to drug: Not related: 0
  AEs by relationship to drug: Possibly related: 0
  AEs by relationship to drug: Related: 0
  AEs by relationship to drug: Unlikely related: 0
  Any AE, all CTCAE grades: 0
  CTCAE Grade 1: 0
  CTCAE Grade 2: 0
  CTCAE Grade 3 or higher: 0
  Serious AEs: 0
Single 30 mg dose
  AEs by relationship to drug: Not related: 1 (16.7%)
  AEs by relationship to drug: Possibly related: 1 (16.7%)*
  AEs by relationship to drug: Related: 0
  AEs by relationship to drug: Unlikely related: 0
  Any AE, all CTCAE grades: 2 (33.3%)
  CTCAE Grade 1: 1 (16.7%)
  CTCAE Grade 2: 1 (16.7%)
  CTCAE Grade 3 or higher: 0
  Serious AEs: 0
Single 60 mg dose
  AEs by relationship to drug: Not related: 0
  AEs by relationship to drug: Possibly related: 0
  AEs by relationship to drug: Related: 0
  AEs by relationship to drug: Unlikely related: 0
  Any AE, all CTCAE grades: 0
  CTCAE Grade 1: 0
  CTCAE Grade 2: 0
  CTCAE Grade 3 or higher: 0
  Serious AEs: 0
